Assay results as given in patent US20130084379A1, “ACTIVE INGREDIENT DELIVERY SYSTEM” (FIRMENICH SA, priority 2010, published 2013).

Test: Dissolution kinetics in a model beverage base (Distek 2100B USP 2 dissolution system, UV/VIS probe at 324 nm)
Assay type: physicochemical
Details: 200 rpm, 20 ppm nominal
Method: The dissolution kinetics of the powder prepared in example 1 was compared to that of Compound 1 alone. Evaluation was performed under standard conditions using a Distek 2100B USP 2 dissolution system and a model beverage base.
The model beverage was prepared by stirring together 35 g sucrose, 1.5 g citric acid and 965.3 g deionised water until the sucrose was fully dissolved. Comparative sample 1 was prepared by adding 20 mg of Compound 1 (unencapsulated) to 1 litre of the beverage base to provide 20 ppm of compound 1. Sample 2 was prepared by adding 200 mg of the powder prepared in example 1 to 1 litre of the beverage to provide, once dissolved, a solution containing 20 ppm of compound 1. The samples were each stirred at 200 rpm and the concentration of compound 1 in solution was monitored as a function of time using a UV/VIS spectrometer probe (measuring absorbance at 324 nm). The results are given in the following table (where the values represent the amount (ppm) of Compound 1 in solution: […]

With `CCCNC(=O)C(C)(C)COc1cccc2c1C(N)=NS(=O)(=O)N2` [Sample 1] as the molecule, how does the “time at which 50% dissolution of Compound 1 was achieved” value read?
The value was “approximately 3600 seconds”.

What about the “Concentration in Solution (amount of Compound 1 in solution)” value (“Concentration in Solution” below) (time 0 seconds) of the same molecule?
The value was 0 ppm.

What about the “Concentration in Solution” value (time 10 seconds) of the same molecule?
The value was 0.1 ppm.

What about the “Concentration in Solution” value (time 30 seconds) of the same molecule?
Its value is 0.2 ppm.

And the “Concentration in Solution” value (time 60 seconds)?
Its value is 0.3 ppm.

What about the “Concentration in Solution” value (time 300 seconds) of the same molecule?
Its value is 0.6 ppm.

What about the “Concentration in Solution” value (time 600 seconds) of the same molecule?
Its value is 1.4 ppm.

And the “Concentration in Solution” value (time 3600 seconds)?
Its value is 10.2 ppm.
